Each structure is given as a SMILES string.

This assay addresses T1, human PTH1 receptor (Homo sapiens, UniProt Q03431).
T1 sequence (Q03431 27-593): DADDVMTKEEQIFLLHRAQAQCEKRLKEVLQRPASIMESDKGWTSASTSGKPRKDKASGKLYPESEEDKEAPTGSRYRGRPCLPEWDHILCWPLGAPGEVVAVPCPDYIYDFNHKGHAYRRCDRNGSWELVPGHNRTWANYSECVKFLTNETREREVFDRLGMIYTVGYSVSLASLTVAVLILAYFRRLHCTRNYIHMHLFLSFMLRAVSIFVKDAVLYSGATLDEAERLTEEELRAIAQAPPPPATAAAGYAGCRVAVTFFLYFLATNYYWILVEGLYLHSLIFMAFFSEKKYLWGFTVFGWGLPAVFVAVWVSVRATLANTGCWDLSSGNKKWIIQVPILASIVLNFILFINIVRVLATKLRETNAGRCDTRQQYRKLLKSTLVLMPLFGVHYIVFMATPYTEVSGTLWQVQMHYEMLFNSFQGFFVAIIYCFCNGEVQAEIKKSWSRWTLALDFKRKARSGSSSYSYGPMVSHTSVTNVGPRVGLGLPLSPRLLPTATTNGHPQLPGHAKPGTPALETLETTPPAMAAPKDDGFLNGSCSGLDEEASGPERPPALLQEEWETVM
Briefly: In vitro cAMP signal activity in HKRK-B7 cells (LLC-PK1 cells overexpressing the human PTH1 receptor). It counts as cell-based. The conditions noted are these: HKRK-B7 cells, compound at 1×10^−3 M, cAMP produced as percentage of that produced by hPTH(1-34) at 100 nM.

Take `CN(C)C(=O)Nc1ccc(/C=C/S(=O)(=O)N2CCC3(CC2)N=C(C2CCCCC2)NC3=O)c(C(F)(F)F)c1` [Compound 194, 3-{4-[(E)-2-(2-cyclohexyl-4-oxo-1,3,8-triaza-spiro[4.5]dec-1-ene-8-sulfonyl)-vinyl]-3-trifluoromethyl-phenyl}-1,1-dimethyl-urea]: the “cAMP production activity (%)” value was 56%.

`Cc1cc(C(=O)N2CCC(O)(CF)CC2)cc(C)c1CCS(=O)(=O)N1CCC2(CC1)N=C(c1ccc(OC(F)(F)F)cc1)NC2=O` [Compound 1276, 8-{2-[4-(4-fluoromethyl-4-hydroxy-piperidine-1-carbonyl)-2,6-dimethyl-phenyl]-ethanesulfonyl}-2-(4-trifluoromethoxy-phenyl)-1,3,8-triaza-spiro[4.5]dec-1-en-4-one]: the “cAMP production activity (%)” value was 140%.

Turning to `CCOc1c(N(C)c2cc(C)c(CCS(=O)(=O)N3CCC4(CC3)N=C([C@H]3CC[C@H](C)CC3)NC4=O)c(C)c2)c(=O)c1=O` [Compound 1367, 3-[(3,5-Dimethyl-4-{2-[2-(4-methyl-cyclohexyl)-4-oxo-1,3,8-triaza-spiro[4.5]dec-1-ene-8-sulfonyl]-ethyl}-phenyl)-methyl-amino]-4-ethoxy-cyclobut-3-ene-1,2-dione], the “cAMP production activity (%)” value is on record as 58%.

`CS(=O)(=O)c1cccc(C2=NC3(CCN(S(=O)(=O)c4cccc(Cl)c4)CC3)C(=O)N2)c1` [Compound 32, 8-(3-chloro-benzenesulfonyl)-2-(3-methanesulfonyl-phenyl)-1,3,8-triaza-spiro[4.5]dec-1-en-4-one]: the “cAMP production activity (%)” value is listed as 26%.

As to `COc1c(N(C)C(N)=O)cc(C)c(CCS(=O)(=O)N2CCC3(CC2)N=C([C@H]2CC[C@H](C)CC2)NC3=O)c1C` [Compound 684, 1-(2-methoxy-3,5-dimethyl-4-{2-[2-(4-methyl-cyclohexyl)-4-oxo-1,3,8-triaza-spiro[4.5]dec-1-ene-8-sulfonyl]-ethyl}-phenyl)-1-methyl-urea], the “cAMP production activity (%)” value is 101%.

As for `CCCCCCCCCC1=NC2(CCN(S(=O)(=O)C(F)(F)Cc3c(C)cc(N(C)C(N)=O)cc3C)CC2)C(=O)N1` [Compound 1086, 1-{4-[2,2-Difluoro-2-(2-nonyl-4-oxo-1,3,8-triaza-spiro[4.5]dec-1-ene-8-sulfonyl)-ethyl]-3,5-dimethyl-phenyl}-1-methyl-urea], the “cAMP production activity (%)” value was 151%.

`C=CCCOc1cc(C2=NC3(CCN(S(=O)(=O)CCc4ccc(C(=O)N(C)CCOCC=C)cc4C)CC3)C(=O)N2)cc(C(F)(F)F)c1` [Compound 1419, N-(2-Allyloxy-ethyl)-4-{2-[2-(3-but-3-enyloxy-5-trifluoromethyl-phenyl)-4-oxo-1,3,8-triaza-spiro[4.5]dec-1-ene-8-sulfonyl]-ethyl}-3,N-dimethyl-benzamide]: the “cAMP production activity (%)” value came out at 70%.

As for `CC(C)C1=NC2(CCN(S(=O)(=O)c3cccc(Cl)c3)CC2)C(=O)N1` [Compound 4, 8-(3-chloro-benzenesulfonyl)-2-isopropyl-1,3,8-triaza-spiro[4.5]dec-1-en-4-one], the “cAMP production activity (%)” value is 11%.

Regarding `CC(=O)N(C)c1cc(C)c(CCS(=O)(=O)N2CCC3(CC2)N=C(CCCCCCC(F)(F)F)NC3=O)c(C)c1` [Compound 1044, N-(3,5-Dimethyl-4-{2-[4-oxo-2-(7,7,7-trifluoro-heptyl)-1,3,8-triaza-spiro[4.5]dec-1-ene-8-sulfonyl]-ethyl}-phenyl)-N-methyl-acetamide], the “cAMP production activity (%)” value is on record as 86%.

As to `CC(C)(C)OC(=O)NCc1ccc(/C=C/S(=O)(=O)N2CCC3(CC2)N=C(C2CCCCC2)NC3=O)c(C(F)(F)F)c1` [Compound 205, {4-[(E)-2-(2-cyclohexyl-4-oxo-1,3,8-triaza-spiro[4.5]dec-1-ene-8-sulfonyl)-vinyl]-3-trifluoromethyl-benzyl}-carbamic acid tert-butyl ester], the “cAMP production activity (%)” value worked out at 47%.

`Cc1cc(CO)cc(C)c1/C=C/S(=O)(=O)N1CCC2(CC1)N=C(C1CCC(CCC(F)(F)F)CC1)NC2=O` (centres unmarked) [Compound 553, 8-[(E)-2-(4-hydroxymethyl-2,6-dimethyl-phenyl)-ethenesulfonyl]-2-[4-(3,3,3-trifluoro-propyl)-cyclohexyl]-1,3,8-triaza-spiro[4.5]dec-1-en-4-one]: the “cAMP production activity (%)” value is on record as 80%.

In the case of `Cc1cc(N2CCOCC2=O)cc(C)c1/C=C/S(=O)(=O)N1CCC2(CC1)N=C(C1CCC(CCC(F)(F)F)CC1)NC2=O` (centres unmarked) [Compound 550, 8-{(E)-2-[2,6-dimethyl-4-(3-oxo-morpholin-4-yl)-phenyl]-ethenesulfonyl}-2-[4-(3,3,3-trifluoro-propyl)-cyclohexyl]-1,3,8-triaza-spiro[4.5]dec-1-en-4-one], the “cAMP production activity (%)” value is on record as 124%.

As to `Cc1cc(OCCC(O)CO)cc(C)c1CCS(=O)(=O)N1CCC2(CC1)N=C(c1ccc(F)c(C(F)(F)F)c1)NC2=O` (centres unmarked) [Compound 801, 8-{2-[4-(3,4-dihydroxy-butoxy)-2,6-dimethyl-phenyl]-ethanesulfonyl}-2-(4-fluoro-3-trifluoromethyl-phenyl)-1,3,8-triaza-spiro[4.5]dec-1-en-4-one], the “cAMP production activity (%)” value is listed as 103%.

For `Cc1cc(C(=O)N(C)C)ccc1CCS(=O)(=O)N1CCC2(CC1)N=C(c1ccc(S(C)(=O)=O)cc1)NC2=O` [Compound 891, 4-{2-[2-(4-methanesulfonyl-phenyl)-4-oxo-1,3,8-triaza-spiro[4.5]dec-1-ene-8-sulfonyl]-ethyl}-3,N,N-trimethyl-benzamide], the “cAMP production activity (%)” value amounted to 8.6%.

Turning to `CC(=O)N(C)c1cc(F)c(/C=C/S(=O)(=O)N2CCC3(CC2)N=C(C2CCC(C)CC2)NC3=O)c(F)c1` (centres unmarked) [Compound 523, N-(3,5-difluoro-4-{(E)-2-[2-(4-methyl-cyclohexyl)-4-oxo-1,3,8-triaza-spiro[4.5]dec-1-ene-8-sulfonyl]-vinyl}-phenyl)-N-methyl-acetamide], the “cAMP production activity (%)” value is 89%.

As for `Cc1cc(N2C(=O)CN(C)C2=O)cc(C)c1CCS(=O)(=O)N1CCC2(CC1)N=C(C1CCC(CCC(F)(F)F)CC1)NC2=O` (centres unmarked) [Compound 760, 3-[3,5-dimethyl-4-(2-{4-oxo-2-[4-(3,3,3-trifluoro-propyl)-cyclohexyl]-1,3,8-triaza-spiro[4.5]dec-1-ene-8-sulfonyl}-ethyl)-phenyl]-1-methyl-imidazolidine-2,4-dione], the “cAMP production activity (%)” value came to 93%.

`Cc1cc(C(=O)N2CCC(O)(CF)CC2)cc(C)c1/C=C/S(=O)(=O)N1CCC2(CC1)N=C(c1ccc(OC(F)(F)F)c(OCCCC(F)(F)F)c1)NC2=O` [Compound 1273, 8-{(E)-2-[4-(4-fluoromethyl-4-hydroxy-piperidine-1-carbonyl)-2,6-dimethyl-phenyl]-ethenesulfonyl}-2-[3-(4,4,4-trifluoro-butoxy)-4-trifluoromethoxy-phenyl]-1,3,8-triaza-spiro[4.5]dec-1-en-4-one]: the “cAMP production activity (%)” value worked out at 81%.

On to `Cc1cc(C(=O)N2CCC(C)(O)CC2)cc(C)c1CCS(=O)(=O)N1CCC2(CC1)N=C(c1ccc3c(c1)OC(F)(F)O3)NC2=O` [Compound 1336, 2-(2,2-difluoro-benzo[1,3]dioxol-5-yl)-8-{2-[4-(4-hydroxy-4-methyl-piperidine-1-carbonyl)-2,6-dimethyl-phenyl]-ethanesulfonyl}-1,3,8-triaza-spiro[4.5]dec-1-en-4-one], for which the “cAMP production activity (%)” value is listed as 133%.

As for `O=C(OCc1ccccc1)N1CCCC(C2=NC3(CCN(S(=O)(=O)c4cccc(Cl)c4)CC3)C(=O)N2)C1` (centres unmarked) [Compound 461, 3-[8-(3-chloro-benzenesulfonyl)-4-oxo-1,3,8-triaza-spiro[4.5]dec-1-en-2-yl]-piperidine-1-carboxylic acid benzyl ester], the “cAMP production activity (%)” value came to 51%.

Regarding `Cc1cc2ccc1CCS(=O)(=O)N1CCC3(CC1)N=C(NC3=O)c1cc(cc(C(F)(F)F)c1)OCCC=CCCCCN(C)C2=O` [Compound 1411], the “cAMP production activity (%)” value (0.1 µM) is reported as 38%.

As to `O=C1NC(c2ccc(Cl)cc2Cl)=NC12CCN(S(=O)(=O)c1cccc(Cl)c1)CC2` [Compound 50, 8-(3-chloro-benzenesulfonyl)-2-(2,4-dichloro-phenyl)-1,3,8-triaza-spiro[4.5]dec-1-en-4-one], the “cAMP production activity (%)” value amounted to 26%.

Turning to `Cc1cc(C(=O)N2CCC(O)(CF)CC2)cc(C)c1CCS(=O)(=O)N1CCC2(CC1)N=C(C1CCC(C)CC1)NC2=O` (centres unmarked) [Compound 1383, 8-{2-[4-(4-fluoromethyl-4-hydroxy-piperidine-1-carbonyl)-2,6-dimethyl-phenyl]-ethanesulfonyl}-2-(4-methyl-cyclohexyl)-1,3,8-triaza-spiro[4.5]dec-1-en-4-one], the “cAMP production activity (%)” value amounted to 96%.

For `Cc1cc(N(C)C(N)=O)cc(C)c1/C=C/S(=O)(=O)N1CCC2(CC1)N=C(CCCCCc1ccccc1)NC2=O.O=C(O)C(F)(F)F` [Compound 1133, 1-(3,5-Dimethyl-4-{(E)-2-[4-oxo-2-(5-phenyl-pentyl)-1,3,8-triaza-spiro[4.5]dec-1-ene-8-sulfonyl]-vinyl}-phenyl)-1-methyl-urea trifluoroacetate], the “cAMP production activity (%)” value is listed as 113%.

Values taken from patent US9169254B2, “Spiroimidazolone derivative” (Chugai Seiyaku Kabushiki Kaisha, priority 2009, dated 2015).
